Test system: PDGFRβ/PI3Kδ/Akt
Assay: Western blot of vitreous-induced Akt activation restored by mutant PDGFRβ (βΔx) in PDGFRβ-silent RPEM cells
Assay type: cell-based, human
Details: PDGFRβ-silent RPEM cells expressing βΔx; NAC 10 mM, SU6656 1 μM
Procedure: 2B. Serum-deprived RPEM cells as defined were treated with RV or PDGF-B for 30 minutes and their lysates were analyzed with indicated antibodies. This is a representative of three independent experiments. βΔx: a truncated PDGFRβ without the PDGF-binding domain. NAC: N-acetyl-cysteine (10 mM), a scavenger of reactive oxygen species (ROS), SU: SU6656 (1 μM), a specific inhibitor of Src family kinases (SFKs).
To make the retrovirus, the pLXSHD-PDGFRβΔx construct was transfected into 293GPG cells with reagent (Lipofectamine 2000; Invitrogen). Virus containing medium was collected for 5 days and then was concentrated (25,000g, 90 minutes, 4° C.). RPEM cells deficient for PDGFRβ were infected by incubation with the concentrated retrovirus in DMEM supplemented with 10% FBS and 8 μg/mL polybrene (hexadimethrine bromide; Sigma) for 24 hours. Successfully infected cells were selected in histidine-free DMEM supplemented with 2 mM L-histidinol dihydrochoride (Sigma, St. Louis, Mo.). Resultant cell lines were termed RPEMPAx; the level of the truncated PDGFRPAx was determined by Western blot analysis with an antiPDGFRβ antibody that recognizes the receptor's intracellular domain.
Cells grown to 90% confluence in wells of 24-well plates were serum starved for 24 hours, and then treated with appropriated agents. […] Signal intensity was determined by densitometry using NIH imageJ software^24, 44, 50.

SMILES	effect on restoration of vitreous-induced activation of Akt by mutant PDGFRβ
CC(=O)N[C@@H](CS)C(=O)O [N-acetyl-cysteine]	prevented
CN(C)S(=O)(=O)c1ccc2c(c1)/C(=C/c1cc3c([nH]1)CCCC3)C(=O)N2 [SU6656]	prevented
